# Test results reported in publication PMC3176802, “Structural Basis for Distinct Binding Properties of the Human Galectins to Thomsen-Friedenreich Antigen” (PLoS ONE, 2011).
# “Also recorded” adds a separate entry of the source.
# How the values were obtained:
# Assay type in all cases: binding
# [1] = molecular target: T1, Gal-1-g3-L4 (Gal-1-51ENNR54) mutant (Homo sapiens, UniProt P09382, A56R/D55N/DEL52-52/G54N/H53E); test: ITC assay, ligand titrating mutant Gal-1-g3-L4; settings: mutant Gal-1-g3-L4, 298 K; for N, stochiometry (ITC): stochiometry fixed with a value of 1
# T1 construct: made in house; host or cells: Escherichia coli BL21 (DE3)
# T1 sequence (P09382 with tags, fused parts or gaps DEL52-52/H53E/G54N/D55N/A56R): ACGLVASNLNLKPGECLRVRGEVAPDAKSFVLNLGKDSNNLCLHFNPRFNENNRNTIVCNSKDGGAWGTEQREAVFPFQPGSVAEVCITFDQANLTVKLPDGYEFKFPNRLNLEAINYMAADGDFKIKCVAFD
# Procedure: (§1) The mutants, Gal-1-g3-L4 and Gal-3-g1-L4, were designed by exchanging two loops, g1-L4 and g3-L4. These mutants were constructed using Quick Change Site Directed Mutagenesis method, and then the proteins were expressed and purified as above procedures.
# (§2) The delayed time between injections is 180 s. For every ligands, at least three titrations were done. The dissociation constants (Kd) were calculated using the Origin Program and the experimental data were fitted to a one-set-of-sites model.
# Gal-3-g1-L4 mutant = molecular target: T2, Gal-3-g1-L4 mutant (Homo sapiens, UniProt P17931, E165H/INS164A/N166G/N167D/R168A); test: SPR assay, Gal-3-g1-L4 over immobilized biotin labeled GM1; settings: mutant Gal-3-g1-L4, immobilized biotin labeled GM1 pentasaccharide, steady state affinity model, 298 K
# T2 construct: The molecule used in this study is a truncated CRD domain of Gal-3; made in house; host or cells: Escherichia coli BL21 (DE3)
# T2 sequence (P17931 with tags, fused parts or gaps INS164A/E165H/N166G/N167D/R168A): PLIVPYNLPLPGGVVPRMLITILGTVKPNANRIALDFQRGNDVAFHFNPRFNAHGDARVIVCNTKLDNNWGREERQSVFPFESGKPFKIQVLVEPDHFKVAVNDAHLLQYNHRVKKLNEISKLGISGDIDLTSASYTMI
# Procedure: as §1
# (§3) Biotin labeled GM1 pentasaccharide (from CFG) was dissolved into PBS buffer and connected covalently onto a streptavidin (SA) chip as the immobilized phase. […] Galectins in the sample buffer (20 mM PBS, pH7.5, 0.005% Tween 20) were as the flowing phase. Analytes with volume of 30 µl at various concentrations ordered from low to high were programmed to inject with a 30 µl/min flow rate under different sensorgrams. In order to correct for instrumental and concentration effects, a blank flow channel was used as reference. Specific binding analyses were identified by subtraction of the control channel. The kinetic analyses of molecular interactions were calculated according to the steady state affinity model by BIAcore T100 Evaluation software.
# human galectin-1 (Gal-1) [2] = molecular target: T3, human galectin-1 (Gal-1) (Homo sapiens, UniProt P09382); test: ITC assay, ligand titrating native Gal-1; settings: Gal-1, 298 K
# T3 construct: made in house; host or cells: Escherichia coli BL21 (DE3)
# T3 sequence (P09382 whole entry): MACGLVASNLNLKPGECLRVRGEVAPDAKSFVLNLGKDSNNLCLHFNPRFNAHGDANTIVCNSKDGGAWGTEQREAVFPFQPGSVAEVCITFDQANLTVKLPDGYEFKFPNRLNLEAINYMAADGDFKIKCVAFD
# Procedure: as §2
# Gal-1-g3-L4 mutant = molecular target: T4, Gal-1-g3-L4 mutant (Homo sapiens, UniProt P09382, A56R/D55N/DEL52-52/G54N/H53E); test: SPR assay, Gal-1-g3-L4 over immobilized biotin labeled GM1; settings: mutant Gal-1-g3-L4, immobilized biotin labeled GM1 pentasaccharide, 298 K
# T4 construct: made in house; host or cells: Escherichia coli BL21 (DE3)
# T4 sequence (P09382 with tags, fused parts or gaps DEL52-52/H53E/G54N/D55N/A56R): as the sequence (P09382 with tags, fused parts or gaps DEL52-52/H53E/G54N/D55N/A56R) above
# Procedure: as §1, §3
# [3] = molecular target: T5, human galectin-3 CRD (Gal-3 CRD) (Homo sapiens, UniProt P17931); test: SPR assay, Gal-3 CRD over immobilized biotin labeled GM1; settings: immobilized biotin labeled GM1 pentasaccharide, steady state affinity model, 298 K
# T5 construct: The molecule used in this study is a truncated CRD domain of Gal-3; made in house; host or cells: Escherichia coli BL21 (DE3)
# T5 sequence (P17931 118-248 limits assumed): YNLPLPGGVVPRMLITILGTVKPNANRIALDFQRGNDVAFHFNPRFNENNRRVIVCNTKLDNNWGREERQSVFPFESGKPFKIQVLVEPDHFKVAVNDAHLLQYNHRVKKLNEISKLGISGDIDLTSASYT
# Procedure: as §3
# human galectin-1 (Gal-1) [4] = molecular target: T3, human galectin-1 (Gal-1); test: SPR assay, Gal-1 over immobilized biotin labeled GM1; settings: Gal-1, immobilized biotin labeled GM1 pentasaccharide, 298 K
# Procedure: as §3
# [5] = molecular target: T6, human galectin-3 carbohydrate recognition domain (Gal-3 CRD) (Homo sapiens, UniProt P17931); test: ITC assay, ligand titrating native Gal-3 CRD; settings: 298 K
# T6 construct: The molecule used in this study is a truncated CRD domain of Gal-3; made in house; host or cells: Escherichia coli BL21 (DE3)
# T6 sequence (P17931 118-248 limits assumed): as above
# Procedure: as §2
# [6] = molecular target: T7, Gal-3-g1-L4 (Gal-3 CRD-165AHGDA169) mutant (Homo sapiens, UniProt P17931, E165H/INS164A/N166G/N167D/R168A); test: ITC assay, ligand titrating mutant Gal-3-g1-L4; settings: for N, stochiometry (ITC): stochiometry fixed with a value of 1
# T7 construct: The molecule used in this study is a truncated CRD domain of Gal-3; made in house; host or cells: Escherichia coli BL21 (DE3)
# T7 sequence (P17931 with tags, fused parts or gaps INS164A/E165H/N166G/N167D/R168A): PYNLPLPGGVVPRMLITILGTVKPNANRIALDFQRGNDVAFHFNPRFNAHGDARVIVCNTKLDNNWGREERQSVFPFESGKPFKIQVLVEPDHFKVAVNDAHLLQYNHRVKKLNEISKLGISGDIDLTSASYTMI
# Procedure: as §1, §2
-ΔH (ITC) [1],Kd [1],Kd (ITC) [1],ΔS (ITC) [1],"N, stochiometry (ITC) [1]",-ΔH (ITC) ([5]; Gal-3 CRD),"N, stochiometry (ITC) ([5]; Gal-3 CRD)",ΔS (ITC) ([5]; Gal-3 CRD),"-ΔH (ITC) ([6]; mutant Gal-3-g1-L4, 298 K)","Kd ([6]; mutant Gal-3-g1-L4, 298 K)","ΔS (ITC) ([6]; mutant Gal-3-g1-L4, 298 K)","N, stochiometry (ITC) ([6]; mutant Gal-3-g1-L4, 298 K)",Compound,Kd (ITC) (human galectin-1 (Gal-1) [2]),further results
10.3 kcal/mol,568 µM,gains the TF-binding ability,−19.8 cal/mol/deg,1.00,4.0 kcal/mol,1.06,6.0 cal/mol/deg,3.2 kcal/mol,415 µM,4.7 cal/mol/deg,1.00,"CC(=O)N[C@H]1[C@H](O[C@@H]2[C@H](O[C@]3(C(=O)O)C[C@H](O)[C@@H](NC(C)=O)[C@H]([C@H](O)[C@H](O)CO)O3)[C@@H](O)[C@H](O[C@H]3[C@H](O)[C@@H](O)C(O)O[C@@H]3CO)O[C@@H]2CO)O[C@H](CO)[C@H](O)[C@@H]1O[C@@H]1O[C@H](CO)[C@H](O)[C@H](O)[C@H]1O (some centres unmarked) [GM1, Galβ1-3GalNAcβ1-4[NeuAcα2-3]Galβ1-4Glc]",can not recognize and interact; also recorded: does not bind; also recorded: No affinity,Kd (Gal-3-g1-L4 mutant): 397 µM; Kd (SPR) (Gal-1-g3-L4 mutant): Low affinity; Kd [3]: 62 µM; Kd (SPR) (human galectin-1 (Gal-1) [4]): No affinity
1.5 kcal/mol,719 µM,can bind and interact,9.4 cal/mol/deg,1.00,4.6 kcal/mol,1.21,3.8 cal/mol/deg,3.9 kcal/mol,543 µM,1.9 cal/mol/deg,1.00,"CC(=O)N[C@H]1[C@@H](Oc2ccc([N+](=O)[O-])cc2)O[C@H](CO)[C@H](O)[C@@H]1O[C@@H]1O[C@H](CO)[C@H](O)[C@H](O)[C@H]1O [TFN, TF p-nitrophenyl]",can not recognize; also recorded: does not bind; also recorded: No affinity,"affinity relative to native Gal-3 (ITC) ([5]; native Gal-3 CRD as reference): 100%; Kd (ITC) ([6]; mutant Gal-3-g1-L4, 298 K): very lower affinity; affinity relative to native Gal-3 (ITC) ([6]; mutant Gal-3-g1-L4 compared to native Gal-3, 298 K): 12%"
,,,,,1.9 kcal/mol,1.04,13.5 cal/mol/deg,,,,,Galβ1-3GalNAcα1-O-Ser/Thr [TF antigen],,"-ΔH (ITC) (human galectin-1 (Gal-1) [2]): 26.3 kcal/mol; Kd (human galectin-1 (Gal-1) [2]): 4000 µM; ΔS (ITC) (human galectin-1 (Gal-1) [2]): −77.2 cal/mol/deg; N, stochiometry (ITC) (human galectin-1 (Gal-1) [2]; stochiometry fixed with a value of 1): 1.00; Kd ([5]; Gal-3 CRD): 47 µM"
